# Where “and” joins values, the source holds several entries; their conditions need not be identical. Equal entries are not always repeated.
# Tests used:
# Pseudomona aeruginosa = test system: Pseudomona aeruginosa; set-up: key: Resistant; Sensitive; Intermediate degree (moderate resistance); conditions: clinical isolate, specimen 12; cited from earlier work
# Klebsiella pneumoniae [1] = test system: Klebsiella pneumoniae; set-up: key: Resistant; Sensitive; Intermediate degree (moderate resistance); conditions: clinical isolate, specimen 31853, urine; cited from earlier work
# Escherichia coli = test system: Escherichia coli; set-up: key: Resistant; Sensitive; Intermediate degree (moderate resistance); conditions: clinical isolate, specimen 32042, urine; cited from earlier work
# Klebsiella pneumoniae [2] = test: Bacterial inhibition test of antibiotics, Klebsiella pneumoniae; format: cell-based; conditions: 2-fold dilutions from 1 mg/mL to 1:2048; 37° C. 20 h; 630 nm
# Method: In this example, bacterial inhibition effects of antibiotics on the four multiple resistant bacteria in Tables 1-4 were measured.
# The activated bacterium suspension was diluted to a concentration equivalent to 0.5 McFarland turbidity standard, and diluted with the culture medium of MH broth in a proportion of 1:1000, and then added into each well in amount of 100 μL per well.
# The antibiotics resisted by the above four multiple resistant bacteria were diluted to 1:2048 (2^−11) from 1 mg/mL (initial concentration) by 2-fold dilution, and then the original solution and different concentrations of diluted antibiotics were added respectively into the well containing the bacterium suspension, with each well added with 100 μL, and the minimum inhibitory concentration (MIC) of each antibiotic was recorded finally.
# Meanwhile, a bacterium solution control (that is, bacterium solution plus an equal volume of culture medium) and a blank culture medium control were set.
# Cultivation was performed at 37° C. for 20 h, and detection was performed at 630 nm by the microplate reader, and the bacterial inhibition rate is calculated according to formula (2), and the data obtained is put into formula (1) to calculate specific distance, and the specific distance is added to the virus dilution index with pathologic rate less than 50% to obtain half inhibitory concentration (Reed-Muench method). […]
# Klebsiella pneumoniae [3] = test system: Klebsiella pneumoniae; set-up: key: Resistant; Sensitive; Intermediate degree (moderate resistance); conditions: clinical isolate, specimen 31494, sputum; cited from earlier work
# [4] = test system: AMP-resistant Klebsiella pneumoniae; test: AMP-resistant bacterium infection model in mice (mortality, intraperitoneal colony count); format: in vivo, KM mice; conditions: for protection / control of infection by AMP alone (in words): AMP-resistant bacterium infection model-AMP intervention control group
# Source text: This example studies the antimicrobial effects in vivo of the honeysuckle extracts N1 to N4 which are respectively combined with antibiotics, and the antimicrobial effects were compared with that of the honeysuckle water decoction W combined with the antibiotic.
# The experimental strain is Klebsiella pneumoniae which was isolated from the sputum specimen of the patient in the ward of the Fourth People's Hospital of Jinan in 2010, and detection of the drug resistant spectrum is shown in Table 6 below.
# (§1) KM mice were purchased from the Experimental Animal Center of Shandong University, weighing 16-18 g, with half male and half female and animal license number of SCXK (Lu) 20090001.
# (§2) There were 5 control groups with 10 mice in each group: normal control group, AMP-sensitive bacterium quality control model control group (AMPS) and the treatment group thereof, AMP-resistant bacterium model control group (AMPR) and the treatment group thereof;
# There were 15 experimental groups with 10 mice in each group: N1 to N4 and W were respectively combined with AMP high-dose group, AMP medium-dose group and AMP low-dose group.
# (§3) After being grouped, the animals were injected intraperitoneally with 2.5×10^7 (Klebsiella pneumoniae)*100 μL^−1 per animal, then immediately treated by administration, and the route of administration alternated between tail intravenous injection and intraperitoneal injection (the sterile normal saline was used as the solvent for drugs except W, since continuous tail intravenous injection causes damage to tail veins, therefore the tail intravenous injection and intraperitoneal injection were performed alternatively), the animal was injected once a day for 5 days continuously. The efficacy of each group was evaluated according to the animal mortality and intraperitoneal bacterial count.
# (§4) Intraperitoneal bacterium counting of dead animals: the animals were injected intraperitoneally with 1 ml sterile normal saline immediately after they died, and the abdomens of the animals were kneaded gently for 1 min, the ascites was drawn and coated on the plate after gradient dilution, and cultured at 37° C. overnight, then the colonies were counted;
# (§5) Intraperitoneal bacterium counting of surviving animals: the mice were administrated continuously for 5 days and sacrificed through dislocation 2 h after the last administration, then the mice were injected intraperitoneally with 1 ml sterile normal saline, and the abdomens of the mice were kneaded gently for 1 min, the ascites was drawn and coated on the plate after gradient dilution, and cultured at 37° C. overnight, then the colonies were counted, colony count results of the control groups are shown in table 9 below, and colony count results of the experimental groups are shown in table 10 below.
# AMP-sensitive strain = test: AMP-sensitive bacterium infection model in mice (quality control); format: in vivo, KM mice; conditions: for protection / control of infection by AMP alone (in words): AMP-sensitive bacterium infection model-AMP intervention control group
# Source text: The control strain is clinically isolated AMP-sensitive strain, which was isolated from the sputum specimen of the patient in the ward of the Fourth People's Hospital of Jinan in 2010, and preserved until today.
# as §1, §2, §3, §4, §5
# [5] = AMP intervention control group: AMP 16.80 mg per mouse alone, n = 10
# [6] = AMP-sensitive bacterium model, AMP 16.80 mg per mouse alone, n = 10
structure (smiles),measurement,setting,value
"CC1(C)S[C@@H]2[C@H](NC(=O)[C@H](N)c3ccccc3)C(=O)N2[C@H]1C(=O)O [AMP, ampicillin]",resistance of Pseudomona aeruginosa to the antibiotic,Pseudomona aeruginosa,R
same,resistance of Klebsiella pneumoniae to the antibiotic,Klebsiella pneumoniae [1],R
same,resistance of Escherichia coli to the antibiotic,Escherichia coli,R
same,bacterial inhibition effect of the antibiotic,Klebsiella pneumoniae [2],"inhibitory effect on Klebsiella pneumoniae in the first two dilutions (1 mg/mL, 0.5 mg/mL)"
same,drug resistant spectrum of the experimental strain of Klebsiella pneumoniae,Klebsiella pneumoniae [3],R
same,Mortality (%),[4]; [5],100%
same,Number of deaths 1st day,[4]; [5],0
same,Number of deaths 2nd day,[4]; [5],7
same,Number of deaths 3rd day,[4]; [5],2
same,Number of deaths 4th day,[4]; [5],1
same,Number of deaths 5th day,[4]; [5],0
same,Number of deaths Total,[4]; [5],10
same,protection / control of infection by AMP alone (in words),[4],cannot be protected (all of animals died)
same,protection / control of infection by AMP alone (in words),[4]; listed as ampicillin,cannot be controlled by ampicillin
same,Bacterium isolation positive rate (%),"[4]; AMPR model, AMP 16.80 mg per mouse alone",100%
same,Intraperitoneal colony count of animals,"[4]; AMPR model, AMP 16.80 mg per mouse alone, one value per mouse Nos. 1-10, unit not given in Table 9 (Table 10 note: CFU/mL)",3.557 × 10^10 and 3.478 × 10^10 and 3.578 × 10^10 and 3.487 × 10^10 and 3.550 × 10^10 and 3.373 × 10^10 and 3.360 × 10^10 and 6.617 × 10^9 and 4.800 × 10^9 and 5.467 × 10^9
same,protection / control of infection by AMP alone (in words),AMP-sensitive strain,protected effectively
same,protection / control of infection by AMP alone (in words),AMP-sensitive strain; listed as ampicillin,sensitive to ampicillin
same,Mortality (%),AMP-sensitive strain; [6],0%
same,Number of deaths 1st day,AMP-sensitive strain; [6],0
same,Number of deaths 2nd day,AMP-sensitive strain; [6],0
same,Number of deaths 3rd day,AMP-sensitive strain; [6],0
same,Number of deaths 4th day,AMP-sensitive strain; [6],0
same,Number of deaths 5th day,AMP-sensitive strain; [6],0
same,Number of deaths Total,AMP-sensitive strain; [6],0
same,Bacterium isolation positive rate (%),"AMP-sensitive strain; AMPS model, AMP 16.80 mg per mouse alone",10%
same,Intraperitoneal colony count of animals,"AMP-sensitive strain; AMPS model, AMP 16.80 mg per mouse alone, one value per mouse Nos. 1-10, unit not given in Table 9 (Table 10 note: CFU/mL)",1.054 × 10^1 and 0 (9×)

# Reference: patent US9849145B2, “Pharmaceutical composition containing honeysuckle extract and antibiotics, pharmaceutical kit, and use of honeysuckle extract for preparation of drug” (priority 2011, dated 2017)
